Assay results published in ChEMBL document CHEMBL4680247, “Design, synthesis, and biological evaluation of 3-amino-2-oxazolidinone derivatives as potent quorum-sensing inhibitors of Pseudomonas aeruginosa PAO1” (Eur J Med Chem, 2020).
≈ marks a conversion by molar mass, not a printed value. Calls of active or inactive are those of the source. The rule behind the calls is not given here.

Columns and labels:
[1] = system: Chromobacterium violaceum; assay: Antibacterial activity against Chromobacterium violaceum CV026 mini-Tn5 mutant; type: functional, organism-based
Pseudomonas aeruginosa [2] = assay: Antibacterial activity against Pseudomonas aeruginosa PAO1 planktonic cells assessed as reduction in bacterial growth after 18 hrs by resazurin dye based assay; conditions: PAO1, 18 h
Pseudomonas aeruginosa [3] = assay: Antibacterial activity against Pseudomonas aeruginosa PAO1 biofilm cells assessed as reduction in bacterial growth after 2 days by resazurin dye based assay; conditions: PAO1, 48 h
[4] = Inhibition of quorum sensing in Chromobacterium violaceum CV026 mini-Tn5 mutant after 12 hrs in presence of C6-HSL
[5] = system: Chromobacterium violaceum; assay: Inhibition of quorum sensing in Chromobacterium violaceum CV026 mini-Tn5 mutant at 2.5 to […] after 12 hrs in presence of C6-HSL
Pseudomonas aeruginosa [6] = assay: Antibacterial activity against Pseudomonas aeruginosa PAO1 infected in Caenorhabditis elegans N2 strain assessed as reduction in bacterial growth at 0.25 ug/ml after 120 hrs; type: functional, organism-based; conditions: dose 0.25 µg/ml
Pseudomonas aeruginosa [7] = assay: Ratio of MIC for antibacterial activity against Pseudomonas aeruginosa PAO1 biofilm cells to antibacterial activity against Pseudomonas aeruginosa PAO1 planktonic cells; type: functional
Pseudomonas aeruginosa [8] = assay: Antibacterial activity against Pseudomonas aeruginosa PAO1 infected in Caenorhabditis elegans N2 strain assessed as increase in Caenorhabditis elegans survival rate at 0.25 ug/ml after 120 hrs relative to control; type: functional; conditions: dose 0.25 µg/ml
Pseudomonas aeruginosa [9] = assay: Antibacterial activity against Pseudomonas aeruginosa PAO1 infected in Caenorhabditis elegans N2 strain assessed as increase in Caenorhabditis elegans survival rate at 0.25 ug/ml up to 240 hrs relative to control; type: functional; conditions: dose 0.25 µg/ml; time hrs <=240
Pseudomonas aeruginosa [10] = assay: Inhibition of biofilm formation in Pseudomonas aeruginosa PAO1after 20 hrs by crystal violet assay; type: functional, organism-based; conditions: PAO1, dose 10-325 µM
Pseudomonas aeruginosa [11] = assay: Antibacterial activity against Pseudomonas aeruginosa ATCC 27853 planktonic cells assessed as reduction in bacterial growth after 18 hrs by resazurin dye based assay; type: functional
Pseudomonas aeruginosa [12] = assay: Inhibition of biofilm formation in Pseudomonas aeruginosa PAO1 at 162.5 uM after 20 hrs by crystal violet assay relative to control; type: functional
[13] = system: Pseudomonas aeruginosa PAO1; assay: Inhibition of quorum sensing las in Pseudomonas aeruginosa PAO1 assessed as reduction in protease level at 162.5 uM after 16 hrs
Pseudomonas aeruginosa [14] = assay: Antibacterial activity against Pseudomonas aeruginosa PAO1 infected in Caenorhabditis elegans N2 strain assessed as increase in Caenorhabditis elegans survival rate at 162.5 uM after 120 hrs relative to control; type: functional
[15] = system: Pseudomonas aeruginosa PAO1; assay: Inhibition of quorum sensing las in Pseudomonas aeruginosa PAO1 assessed as reduction in protease level at 20 to 162.5 uM after 16 hrs; conditions: dose 20-162.5 µM
[16] = system: Pseudomonas aeruginosa PAO1; assay: Inhibition of quorum sensing Rhl/PQS in Pseudomonas aeruginosa PAO1 assessed as reduction in pyocyanin level at 162.5 uM after 16 hrs relative to control
Pseudomonas aeruginosa [17] = assay: Antibacterial activity against Pseudomonas aeruginosa PAO1 biofilm cells assessed as reduction in microbial growth at 10 uM after 6 days; type: functional, organism-based; conditions: time 6.0 day
[18] = system: Pseudomonas aeruginosa PAO1; assay: Inhibition of quorum sensing lasB in Pseudomonas aeruginosa PAO1 assessed as reduction in elastase level at 162.5 uM after 16 hrs by elastin Congo red method relative to control
Pseudomonas aeruginosa [19] = assay: Antibacterial activity against Pseudomonas aeruginosa ATCC 27853 biofilm cells assessed as reduction in bacterial growth after 2 days by resazurin dye based assay; type: functional; conditions: ATCC 27853, 48 h, time 2 day
Pseudomonas aeruginosa [20] = assay: Inhibition of biofilm formation in Pseudomonas aeruginosa PAO1 at 10 to 325 uM after 20 hrs by crystal violet assay relative to control; type: functional; conditions: dose 10-325 µM
Pseudomonas aeruginosa [21] = assay: Synergistic antibacterial activity against Pseudomonas aeruginosa PAO1 biofilm cells assessed as FICI in presence of MPEM by checker board assay; type: functional
[22] = system: Pseudomonas aeruginosa PAO1; assay: Inhibition of quorum sensing RhlAB in Pseudomonas aeruginosa PAO1 assessed as reduction in rhamnolipid level at 20 to 162.5 uM after 48 hrs by sulfuric acid-orcinol method; conditions: dose 20-162.5 µM
[23] = system: Pseudomonas aeruginosa PAO1; assay: Inhibition of quorum sensing RhlAB in Pseudomonas aeruginosa PAO1 assessed as reduction in rhamnolipid level at 162.5 uM after 48 hrs by sulfuric acid-orcinol method relative to control
[24] = system: Pseudomonas aeruginosa PAO1; assay: Inhibition of quorum sensing lasB in Pseudomonas aeruginosa PAO1 assessed as reduction in elastase level at 20 to 162.5 uM after 16 hrs by elastin Congo red method; conditions: dose 20-162.5 µM
Pseudomonas aeruginosa [25] = assay: Synergistic antibacterial activity against Pseudomonas aeruginosa PAO1 biofilm cells assessed as fold change in MPEM MIC by checker board assay; type: functional
[26] = system: Pseudomonas aeruginosa PAO1; assay: Inhibition of quorum sensing Rhl/PQS in Pseudomonas aeruginosa PAO1 assessed as reduction in pyocyanin level at 20 to 162.5 uM after 16 hrs; conditions: dose 20-162.5 µM
Pseudomonas aeruginosa [27] = assay: Antibacterial activity against Pseudomonas aeruginosa PAO1 biofilm cells assessed as reduction in microbial growth under sonication at 0.25 ug/ml after 6 days; type: functional, organism-based; conditions: dose 0.25 µg/ml, time 6.0 day
[28] = system: Pseudomonas aeruginosa PAO1; assay: Inhibition of quorum sensing system in Pseudomonas aeruginosa PAO1 assessed as reduction in swarming motility after 24 hrs; conditions: dose 20-162.5 µM
Pseudomonas aeruginosa [29] = assay: Antibacterial activity against Pseudomonas aeruginosa PAO1 infected in Caenorhabditis elegans N2 strain assessed as increase in Caenorhabditis elegans survival rate at 162.5 uM up to 240 hrs relative to control; type: functional; conditions: time hrs <=240
Pseudomonas aeruginosa [30] = assay: Antibacterial activity against Pseudomonas aeruginosa PAO1 biofilm cells assessed as reduction in microbial growth at 10 uM after 6 days in presence of MPEM; type: functional, organism-based; conditions: time 6.0 day
Pseudomonas aeruginosa [31] = assay: Antibacterial activity against Pseudomonas aeruginosa PAO1 infected in Caenorhabditis elegans N2 strain assessed as reduction in bacterial growth at 162.5 uM after 120 hrs; type: functional, organism-based

In the case of `O=C(CCCCCCSc1ccc(Cl)cc1)NN1CCOC1=O`, the Activity [1] is reported as “inactive”.

For `O=C(CCCCCCOc1ccc(Cl)cc1)NN1CCOC1=O`, the Activity [1] was “inactive”.

For `O=C(CCCCCCOc1ccc(Br)cc1Br)NN1CCOC1=O`, the Activity [1] was “inactive”.

`NCC[C@H](O)C(=O)N[C@@H]1C[C@H](N)[C@@H](O[C@H]2O[C@H](CN)[C@@H](O)[C@H](O)[C@H]2O)[C@H](O)[C@H]1O[C@H]1O[C@H](CO)[C@@H](O)[C@H](N)[C@H]1O` [AMIKACIN] showed an MIC (Pseudomonas aeruginosa [2]) of 4 µg/mL (≈ 6.83 µM) and an MIC (Pseudomonas aeruginosa [3]) of 16 µg/mL (≈ 27.3 µM).

For `O=C(CCCCOc1ccc(F)cc1)NN1CCOC1=O`, the IC50 [4] was 23.1 µM, the Activity [1] was “inactive” and the inhibition [5] was “Active”.

With `O=C(CCCCCCOc1ccc(Br)cc1)NN1CCOC1=O` the Activity [1] was “inactive”.

With `O=C(CCCCOc1ccc(Cl)cc1)NN1CCOC1=O` the IC50 [4] was 39.5 µM, the Activity [1] was “inactive” and the inhibition [5] was “Active”.

Compound `NC[C@H]1O[C@H](O[C@H]2[C@H](O)[C@@H](O[C@H]3O[C@H](CO)[C@@H](O)[C@H](N)[C@H]3O)[C@H](N)C[C@@H]2N)[C@H](N)C[C@@H]1O` [TOBRAMYCIN] has an MIC (Pseudomonas aeruginosa [2]) of 2 µg/mL (≈ 4.28 µM) and an MIC (Pseudomonas aeruginosa [3]) of 8 µg/mL (≈ 17.1 µM).

In the case of `O=C(CCCOc1cc(F)cc(F)c1)NN1CCOC1=O`, the IC50 [4] is reported as 61.6 µM, the Activity [1] is reported as “inactive” and the inhibition [5] is reported as “Active”.

Compound `CC(C)(O/N=C(\C(=O)N[C@@H]1C(=O)N2C(C(=O)[O-])=C(C[n+]3ccccc3)CS[C@H]12)c1csc(N)n1)C(=O)O` [CEFTAZIDIME] has an MIC (Pseudomonas aeruginosa [2]) of 1 µg/mL (≈ 1.83 µM) and an MIC (Pseudomonas aeruginosa [3]) of 2 µg/mL (≈ 3.66 µM).

In the case of `O=C(CCCOc1cccc(Cl)c1)NN1CCOC1=O`, the IC50 [4] is reported as 38.1 µM, the Activity [1] is reported as “inactive” and the inhibition [5] is reported as “Active”.

For `C[C@@H](O)[C@H]1C(=O)N2C(C(=O)O)=C(S[C@@H]3CN[C@H](C(=O)N(C)C)C3)[C@H](C)[C@H]12` [MEROPENEM], the Activity (Pseudomonas aeruginosa [6]) was “Active”, the MIC (Pseudomonas aeruginosa [2]) was 0.25 µg/mL (≈ 0.652 µM) and the Ratio (Pseudomonas aeruginosa [7]) was 32. It also gave an MIC (Pseudomonas aeruginosa [3]) of 8 µg/mL (≈ 20.9 µM), an Activity (Pseudomonas aeruginosa [8]) of 13.33% and an Activity (Pseudomonas aeruginosa [9]) of 15.67%.

For `O=C(CCCOc1ccccc1F)NN1CCOC1=O`, the IC50 [4] was 40.9 µM, the Activity [1] was “inactive” and the inhibition [5] was “Active”.

With `O=C(CCCCCCOc1ccc([N+](=O)[O-])cc1)NN1CCOC1=O` the Activity [1] was “inactive”.

In the case of `O=C(CCCCOc1cccc(F)c1)NN1CCOC1=O`, the IC50 [4] is reported as 63.6 µM, the Activity [1] is reported as “inactive” and the inhibition [5] is reported as “Active”.

With `O=C(CCCOc1ccc(F)cc1)NN1CCOC1=O` the IC50 [4] was 11 µM, the Activity [1] was “inactive” and the inhibition [5] was “Active”.

In the case of `O=C(CCCOc1cccc(F)c1)NN1CCOC1=O`, the IC50 [4] is reported as 15.5 µM, the Activity [1] is reported as “inactive” and the inhibition [5] is reported as “Active”.

In the case of `O=C(CCCOc1ccc(Br)cc1)NN1CCOC1=O`, the inhibition (Pseudomonas aeruginosa [10]) is reported as “Dose-dependent effect”, the MIC (Pseudomonas aeruginosa [11]) is reported as over 1110 µg/mL and the IC50 [4] is reported as 3.69 µM. It also gave an inhibition at 162.5 µM (Pseudomonas aeruginosa [12]) of 40.4%, an inhibition [13] of 14.9% and an MIC (Pseudomonas aeruginosa [2]) of over 1110 µg/mL. The Activity (Pseudomonas aeruginosa [14]) was 16%, the inhibition [15] was “Active” and the inhibition [16] was 22.5%. The Activity (Pseudomonas aeruginosa [17]) was “inactive”, the Activity [1] was “inactive” and the inhibition [18] was 16.2%. The MIC (Pseudomonas aeruginosa [19]) was over 1110 µg/mL, the “inhibition (INH)” value (Pseudomonas aeruginosa [20]) was 17.67% and the inhibition [5] was “Active”. For the same compound, the “fractional inhibitory concentration index (FICI)” value (Pseudomonas aeruginosa [21]) was under 0.5, the inhibition [22] was “Active” and the MIC (Pseudomonas aeruginosa [3]) was over 1110 µg/mL. For the same compound, the inhibition [23] was 57.9%, the inhibition [24] was “Active” and the “fold change (FC)” value (Pseudomonas aeruginosa [25]) was 8. For the same compound, the inhibition [26] was “Active”, the Activity (Pseudomonas aeruginosa [27]) was “Active” and the inhibition [28] was “Dose-dependent effect”. For the same compound, the Activity (Pseudomonas aeruginosa [29]) was 18.33%, the Activity (Pseudomonas aeruginosa [30]) was “Active” and the Activity (Pseudomonas aeruginosa [31]) was “Active”.

In the case of `CCCCCCCCCC(=O)N[C@H]1CCOC1=O`, the IC50 [4] is reported as 0.13 µM.

For `O=C(CCCOc1ccc([N+](=O)[O-])cc1)NN1CCOC1=O`, the IC50 [4] was 21.3 µM, the Activity [1] was “inactive” and the inhibition [5] was “Active”.

Compound `O=C(O)c1cn(C2CC2)c2cc(N3CCNCC3)c(F)cc2c1=O` [CIPROFLOXACIN] has an MIC (Pseudomonas aeruginosa [2]) of 0.08 µg/mL (≈ 0.241 µM).

With `O=C(CCCSc1ccc(Cl)cc1)NN1CCOC1=O` the IC50 [4] was 6.84 µM, the Activity [1] was “inactive” and the inhibition [5] was “Active”.

With `O=C(CCCCCOc1ccc(Cl)cc1)NN1CCOC1=O` the IC50 [4] was 32.8 µM, the Activity [1] was “inactive” and the inhibition [5] was “Active”.

With `O=C(CCCOc1ccc(F)cc1F)NN1CCOC1=O` the IC50 [4] was 19.6 µM, the Activity [1] was “inactive” and the inhibition [5] was “Active”.
